Assay results as given in US20110039783A1, “PEPTIDE HAVING HYPOTENSIVE ACTIVITY” (DAIICHI SANKYO COMPANY LIMITED, priority 2007, published 2011).
Where no end group is shown, it is not given here. [ ]: non-standard residue; d: D form. Cha = N[C@@H](CC1CCCCC1)C(=O)O

Tested on: blood pressure of anesthetized Sprague-Dawley IGS male rats
Assay: Hypotensive activity in anesthetized rats, invasive blood pressure measurement after intravenous administration
Format: in vivo, rat
Conditions: for Hypotensive activity (dose/rat) 10 nmol / Hypotensive activity (dose/rat) 30 nmol / Hypotensive activity (dose/rat) 100 nmol: anesthetized rats, intravenous; for Hypotensive activity (dose/rat) 10 nmol: 10 nmol/rat; for Hypotensive activity (dose/rat) 30 nmol: 30 nmol/rat; for Hypotensive activity (dose/rat) 100 nmol: 100 nmol/rat; for dose dependence of hypotensive activity: anesthetized rats, 10, 30, 100 nmol/rat
Method: 50 mg/kg pentobarbital sodium was intraperitoneally administered to 8- to 10-week-old Sprague-Dawley IGS male rats (Charles River Laboratories Japan, Inc.) for anesthesia. Thereafter, a tracheal cannula (PE 250), a femoral vein cannula (PE50), and a femoral artery cannula (PESO) were inserted into each rat. The femoral artery cannula was connected with a pressure transducer (PE23XL; manufactured by Nihon Kohden Corporation), and an apparatus formed by incorporating a blood pressure measurement unit (AP-641G; manufactured by Nihon Kohden Corporation) and an instantaneous heart rate measurement unit (AT-601G; manufactured by Nihon Kohden Corporation) into a multi-purpose preamplifier (RP-6004; manufactured by Nihon Kohden Corporation) was used to record the blood pressure and heart rate of each rat. The blood pressure was calibrated using a mercury manometer included in a stand-type electromanometer (MP-25S; manufactured by Nihon Kohden Corporation). The recording paper was adjusted, such that 10 mm or 20 mm on the recording paper corresponded to 100 mmHg.
Each peptide was dissolved in a concentration of 1 mM or 10 mM in a 0.1% acetic acid solution to prepare a peptide solution. Thereafter, depending on dose, it was diluted with a normal saline containing 0.1% bovine serum albumin (Fr.V). In the case of the dose of 10 nmol/rat, a 1 mM peptide solution was 10 times diluted, and 100 μl of the diluted solution was administered. In the case of the dose of 30 nmol/rat, a 1 mM peptide solution was 10 times diluted, and 300 μL, of the diluted solution was administered. In the case of the dose of 100 nmol/rat, a 10 mM peptide solution was 10 times diluted, and 100 μL of the diluted solution was administered. Each peptide was intravenously administered via the femoral vein cannula, and the systolic blood pressure, diastolic blood pressure, and heart rate were then measured.
Various HC021 derivative peptides were synthesized in accordance with Example 1, and such peptide was then administered to each rat at a dose of 10 nmol/rat, 30 nmol/rat, or 100 mol/rat by the method described in Example 2. Thereafter, the hypotensive activity of each derivative peptide was measured. […] The strength of such activity was determined using a median of activity in repeated experiments. In addition, in order to make a comparison among the activities of various derivative peptides, the strength of hypotensive activity was defined as follows.
Strength of Hypotensive Activity
Extremely strong activity (+++): A decrease in systolic blood pressure is 30 mmHg or more, and the time required for recovery is 5 minutes or more.
Strong activity (++): A decrease in systolic blood pressure is 20 mmHg or more and less than 30 mmHg, or the time required for recovery is less than 5 minutes.
Activity observed (+): A decrease in systolic blood pressure is less than 20 mmHg.
Activity not observed (−)
Various HC021 peptide sequence-substituted products were synthesized in accordance with Example 1, and their hypotensive activity was then measured according to the method of Example 3.

Substance	Hypotensive activity (dose/rat) 10 nmol (Table 3)	Hypotensive activity (dose/rat) 30 nmol (Table 3)	Hypotensive activity (dose/rat) 30 nmol (Table 2)	Hypotensive activity (dose/rat) 100 nmol (Table 2)	also measured
ATLGSEDTWKPLSNPRNRDLFPRRLQAYFK-amide [Compound 35]	−	++ (Strong activity (++): A decrease in systolic blood pressure is 20 mmHg or more and less than 30 mmHg, or the time required for recovery is less than 5 minutes.)			
ATLGSEDTWKPLSNPRNRELFFRSLQAYF-amide [Compound 38]	−	−			Hypotensive activity (dose/rat) 100 nmol (Table 3): ++ (Strong activity (++): A decrease in systolic blood pressure is 20 mmHg or more and less than 30 mmHg, or the time required for recovery is less than 5 minutes.)
ATLGSEDTWKPLSNPRNRELFFRSLQAYFK-amide [Compound 37]	−	−			Hypotensive activity (dose/rat) 100 nmol (Table 3): ++ (Strong activity (++): A decrease in systolic blood pressure is 20 mmHg or more and less than 30 mmHg, or the time required for recovery is less than 5 minutes.)
ATLRNEDTWKPLSNPRNRDLFFRRLQAYFK-amide [Compound 34]	−	+ (Activity observed (+): A decrease in systolic blood pressure is less than 20 mmHg.)			
ATVRNEDKWKPLNNPRNRDLFF [Compound 1]			−	−	Hypotensive activity (dose/rat) 10 nmol (Table 1): −; Hypotensive activity (dose/rat) 30 nmol (Table 1): −; Hypotensive activity (dose/rat) 100 nmol (Table 1): −; Hypotensive activity (dose/rat) 10 nmol (Table 2): −
ATVRNEDKWKPLNNPRNRDLFFRRLQAYF [Compound 9]			−	+++ (Extremely strong activity (+++): A decrease in systolic blood pressure is 30 mmHg or more, and the time required for recovery is 5 minutes or more.)	
ATVRNEDKWKPLNNPRNRDLFFRRLQAYF-amide [Compound 10]			++ (Strong activity (++): A decrease in systolic blood pressure is 20 mmHg or more and less than 30 mmHg, or the time required for recovery is less than 5 minutes.)		Hypotensive activity (dose/rat) 10 nmol (Table 2): −
ATVRNEDKWKPLNNPRNRDLFFRRLQAYFK (not fully specified) [Compound 8]			−	+++ (Extremely strong activity (+++): A decrease in systolic blood pressure is 30 mmHg or more, and the time required for recovery is 5 minutes or more.)	
DLFFRRLQAYFK-amide (DLFFRRLQAYFK-NH2) [Compound 17]			++ (Strong activity (++): A decrease in systolic blood pressure is 20 mmHg or more and less than 30 mmHg, or the time required for recovery is less than 5 minutes.)	+++ (Extremely strong activity (+++): A decrease in systolic blood pressure is 30 mmHg or more, and the time required for recovery is 5 minutes or more.)	Hypotensive activity (dose/rat) 10 nmol (Table 2): −; dose dependence of hypotensive activity: enhanced their hypotensive activity in a dose-dependent manner
FFRRLQAYFK-amide (FFRRLQAYFK-NH2) [Compound 20]			−	−	
FRRLQAYFK-amide (FRRLQAYFK-NH2) [Compound 21]			−	−	
FVPIFTYGELQRMQNRDLFFRRLQAYFK-amide (FVPIFTYGELQRMQNRDLFFRRLQAYFK-NH2) [Compound 39]	−	−			Hypotensive activity (dose/rat) 100 nmol (Table 3): +++ (Extremely strong activity (+++): A decrease in systolic blood pressure is 30 mmHg or more, and the time required for recovery is 5 minutes or more.)
GATVRNEDKWKPLNNPRNRDLFFRRLQAYFK-amide [Compound 7]			++ (Strong activity (++): A decrease in systolic blood pressure is 20 mmHg or more and less than 30 mmHg, or the time required for recovery is less than 5 minutes.)		Hypotensive activity (dose/rat) 10 nmol (Table 2): −
LFERRLQAYFKNGAEDESAEAFPLEF-amide (LFERRLQAYFKNGAEDESAEAFPLEF-NH2) [Compound 48]	+++ (Extremely strong activity (+++): A decrease in systolic blood pressure is 30 mmHg or more, and the time required for recovery is 5 minutes or more.)				
LFFRRLQA(Cha)FK-amide (LFFRRLQA[Cha]FK-NH2; N-terminus assumed; SMILES CC(C)C[C@H](NC(=O)[C@H](CCCNC(=N)N)NC(=O)[C@H](CCCNC(=N)N)NC(=O)[C@H](Cc1ccccc1)NC(=O)[C@H](Cc1ccccc1)NC(=O)[C@@H](N)CC(C)C)C(=O)N[C@@H](CCC(N)=O)C(=O)N[C@@H](C)C(=O)N[C@@H](CC1CCCCC1)C(=O)N[C@@H](Cc1ccccc1)C(=O)N[C@@H](CCCCN)C(N)=O) [Compound 45]	+ (Activity observed (+): A decrease in systolic blood pressure is less than 20 mmHg.)	+++ (Extremely strong activity (+++): A decrease in systolic blood pressure is 30 mmHg or more, and the time required for recovery is 5 minutes or more.)			
LFFRRLQA-amide (LFFRRLQA-NH2) [Compound 26]			−	−	
LFFRRLQAHFK-amide (LFFRRLQAHFK-NH2) [Compound 47]	−	−			Hypotensive activity (dose/rat) 100 nmol (Table 3): +++ (Extremely strong activity (+++): A decrease in systolic blood pressure is 30 mmHg or more, and the time required for recovery is 5 minutes or more.)
LFFRRLQALFK-amide (LFFRRLQALFK-NH2) [Compound 44]	−	++ (Strong activity (++): A decrease in systolic blood pressure is 20 mmHg or more and less than 30 mmHg, or the time required for recovery is less than 5 minutes.)			
LFFRRLQAWFK-amide (LFFRRLQAWFK-NH2) [Compound 46]	−	−			Hypotensive activity (dose/rat) 100 nmol (Table 3): + (Activity observed (+): A decrease in systolic blood pressure is less than 20 mmHg.)
LFFRRLQAY-amide (LFFRRLQAY-NH2) [Compound 25]			−	+ (Activity observed (+): A decrease in systolic blood pressure is less than 20 mmHg.)	
LFFRRLQAYF-amide (LFFRRLQAYF-NH2) [Compound 24]			++ (Strong activity (++): A decrease in systolic blood pressure is 20 mmHg or more and less than 30 mmHg, or the time required for recovery is less than 5 minutes.)		
LFFRRLQAYFK [Compound 18]			−	++ (Strong activity (++): A decrease in systolic blood pressure is 20 mmHg or more and less than 30 mmHg, or the time required for recovery is less than 5 minutes.)	
LFFRRLQAYFK-amide (LFFRRLQAYFK-NH2) [Compound 19]	+ (Activity observed (+): A decrease in systolic blood pressure is less than 20 mmHg.)	++ (Strong activity (++): A decrease in systolic blood pressure is 20 mmHg or more and less than 30 mmHg, or the time required for recovery is less than 5 minutes.)	++ (Strong activity (++): A decrease in systolic blood pressure is 20 mmHg or more and less than 30 mmHg, or the time required for recovery is less than 5 minutes.)	+++ (Extremely strong activity (+++): A decrease in systolic blood pressure is 30 mmHg or more, and the time required for recovery is 5 minutes or more.)	Hypotensive activity (dose/rat) 10 nmol (Table 2): + (Activity observed (+): A decrease in systolic blood pressure is less than 20 mmHg.); Hypotensive activity (dose/rat) 100 nmol (Table 3): +++ (Extremely strong activity (+++): A decrease in systolic blood pressure is 30 mmHg or more, and the time required for recovery is 5 minutes or more.); dose dependence of hypotensive activity: enhanced their hypotensive activity in a dose-dependent manner
LFFRRLQAYFKASASADYEEQKNSFHNYLK- amide [Compound 49]	+++ (Extremely strong activity (+++): A decrease in systolic blood pressure is 30 mmHg or more, and the time required for recovery is 5 minutes or more.)				
